Experimental data from patent publication US20110190123A1, “SLOW-RELEASE FORMULATIONS CONTAINING QUILLAY EXTRACTS, FOR CONTROLLING WHEAT TAKE-ALL DISEASE” (priority 2008, published 2011).

Key:
Gaeumannomyces graminis = assay: Field tests in Region IX of Chile, root rot in wheat plants; type: in vivo; settings: four field experiments, highly rainy season
From the text: This invention refers to natural fungicides used in seed treatment or soil treatment, that are obtained from quillay extract formulation, rich in saponin concentrations, to which synthetic polymers have been adhered (latex and resins) allowing its slow release in the soil, and which efficiency and control have been tested at a plant pot and field experiment level on fungus Gaeumannomyces graminis, which is the cause of take-all of wheat.

Ggt = assay: Plant pot experiments, control of take-all in wheat (Take-All Index); type: in vivo, Gaeumannomyces graminis
Description: Agronomic evaluation of control effectiveness of the formulations developed on the Ggt fungus was conducted through the establishment of 26 experiments in plant pots. These experiments allowed to evaluate new formulations, or correct defective aspects of the formulations developed. Evaluation methodology was made under greenhouse and awning conditions, considering: soil use of Yerbas Buenas ([…] Region VII), which was sterilized by autoclave and inoculated with Ggt grown in oat grains during 40 days. Soil was placed in PVC plant pots arranged on a wooden plate, where it was seeded with a wheat seed of cv. Dalcahue-INIA.
In these experiences two sample treatments were used (with and without inoculum) and one commercial sample Silthiofam (Latitude®, Monsanto) in dosis of 2 L/ton of seed to compare the effectiveness of different slow release formulations or “Slow release” based on quillay extract.

[1] = FIG. 6 experiment, Oct. 3, 2005
[2] = average of plant pot experiments

Compound: C=CCNC(=O)c1c([Si](C)(C)C)sc(C)c1C [Silthiofam]
- effectiveness in field experiments (Gaeumannomyces graminis): did not show effectiveness
- control with respect to the inoculated sample (Ggt; FIG. 2 experiment, seed treatment, Silthiofam 2 L/ton of seed): 44%
- control with respect to the inoculated sample (Ggt; FIG. 3 experiment, seed treatments, QL 1000 4 L per ha): 50.8%
- Take-All Index (TAI) (Ggt; [1]): 28
- control with respect to the non-treated sample (Ggt; [1]): 71%
- Take-All Index (TAI), average among all experiences (Ggt; [2]): 24.6
- average control level with respect to the inoculated sample (Ggt; [2]): 67.5%
